Measurements reported in patent US10377774B2 (JINAN UNIVERSITY, priority 2013, dated 2019).
Marks after values point to notes of the source that are not given here.

Experiments:
[1] = test system: human leukemia cell line K562; experiment: MTT cell growth inhibition, K562; assay type: cell-based; details: Homo sapiens; K562, MTT assay, 72 h; read-out: IC50, growth of tumor cell line
Description: (§3) Experimental method: Cell lines (human non-small-cell lung cancer cell line A549, human colon cancer cell line LOVO, human nasopharyngeal carcinoma cell line CNE-2, human liver cancer cell line HepG2, human cervical carcinoma cell line Hela, human breast cancer cell lines MCF-7 and MDA-MB-231, human gastric carcinoma cell line NCI-N87, human prostatic cancer cell lines PC-3 and DU145, human leukemia cell line K562, human melanoma cell line A375, human neuroblastoma cell line SH-SY5H, human promyelocytic leukemia cell line HL-60, 5-FU-resistant human hepatocellular carcinoma cell line BEL-7402/5-Fu, doxorubicin-resistant hepatocellular carcinoma cell line HepG2/ADM, doxorubicin-resistant human breast cancer cell lines MCF-7/ADR) at logarithmic phase were resuspended in RPMI 1640 medium (containing 10% fetal bovine serum, 100 U/mL penicillin-streptomycin). Then, 100 μL of cells (cell concentration was 5×10^5/mL) were seeded into 96 wells plate. After 24 h incubation at 37° C. with 5% CO2, tested compounds were added (the control group without compound) for an additional 72 h incubation. After that, 30 μL of MTT [3-(4,5-Dimethylthiazol-2-yl)-2,5-diphenyltetrazolium bromide] solution (5 mg/mL) was added into each well and incubated for another 4 h at 37° C. and then the formazan crystals were solubilized with 100 μL DMSO. Finally, absorbance of each well was determined at 570 nm by a microplate reader (Thermo).
(§4) The concentration required to inhibit cell growth by 50% (IC50) was calculated from survival curves.

[2] = test system: human liver cancer cell line HepG2; experiment: MTT cell growth inhibition, HepG2; assay type: cell-based; details: Homo sapiens; HepG2, MTT assay, 72 h; read-out: IC50, growth of tumor cell line
Description: as §3, §4

[3] = test system: human nasopharyngeal carcinoma cell line CNE-2; experiment: MTT cell growth inhibition, CNE-2; assay type: cell-based; details: Homo sapiens; CNE-2, MTT assay, 72 h; read-out: IC50, growth of tumor cell line
Description: as §3, §4

[4] = test system: human breast cancer cell line MDA-MB-231; experiment: MTT cell growth inhibition, MDA-MB-231; assay type: cell-based; details: Homo sapiens; MDA-MB-231, MTT assay, 72 h; read-out: IC50, growth of tumor cell line
Description: as §3, §4

[5] = test system: human cervical carcinoma cell line Hela; experiment: MTT cell growth inhibition, Hela; assay type: cell-based; details: Homo sapiens, MTT assay, 72 h, read-out: IC50, growth of tumor cell line
Description: as §3, §4

[6] = test system: human gastric carcinoma cell line NCI-N87; experiment: MTT cell growth inhibition, NCI-N87; assay type: cell-based; details: Homo sapiens; NCI-N87, MTT assay, 72 h; read-out: IC50, growth of tumor cell line
Description: as §3, §4

[7] = test system: human breast cancer cell line MCF-7; experiment: MTT cell growth inhibition, MCF-7; assay type: cell-based; details: Homo sapiens, MCF7; MCF-7, MTT assay, 72 h; read-out: IC50, growth of tumor cell line
Description: as §3, §4

[8] = test system: human promyelocytic leukemia cell line HL-60; experiment: MTT cell growth inhibition, HL-60; assay type: cell-based; details: Homo sapiens; HL-60, MTT assay, 72 h; read-out: IC50, growth of tumor cell line
Description: as §3, §4

[9] = test system: human prostatic cancer cell line PC-3; experiment: MTT cell growth inhibition, PC-3; assay type: cell-based; details: Homo sapiens; PC-3, MTT assay, 72 h; read-out: IC50, growth of tumor cell line
Description: as §3, §4

[10] = test system: doxorubicin-resistant hepatocellular carcinoma cell line HepG2/ADM; experiment: MTT cell growth inhibition, HepG2/ADM; assay type: cell-based, human; details: Homo sapiens, MTT assay, 72 h, read-out: IC50, growth of tumor cell line
[11] = test system: HL-60 xenografts; experiment: HL-60 xenografts in nude mice; assay type: in vivo; details: HL-60 xenograft nude mice; for Anti-tumor rate (%) / Body weight (g) Post-dose / Tumor weight: 1 mg/kg; for Body weight (g) Pre-dose: before dosing
Method: (§1) Experimental method: The MDA-MB-231 cells at logarithmic phase were digested and washed twice with PBS. Then, 100 μL cells (1×10^7) were inoculated subcutaneously on the backs of female BALB/nu/nu mice. After tumors grew to 70˜100 mm^3, the mice were divided randomly into saline group (control group), vinca alkaloids groups (VLB, CCRB, CCFN, CCXJ) and vinca alkaloid derivatives groups (JJ-CCJ, BX-CCJ, JJ-CCRB, BX-CCRB, JJ-CCFN, BX-CCFN, JJ-CCXJ and BX-CCXJ), with six mice per group. 1 mg/kg drugs were injected intraperitoneally every two days, meanwhile body weight and tumor sizes were measured. Experiment was ended after 8 times of drug administration, then tumor and organs were stripped. Tumor volumes were measured using the following formula: V=½(ab^2), whereas a refers to the longest diameter and b is the shortest diameter.
(§2) Tumor xenograft models of HepG2, LOVO, K562 and HL-60 cell lines were performed as the method described above.

[12] = test system: human prostatic cancer cell line DU145; experiment: MTT cell growth inhibition, DU-145; assay type: cell-based; details: Homo sapiens; DU-145, MTT assay, 72 h; read-out: IC50, growth of tumor cell line
Description: as §3, §4

[13] = test system: human neuroblastoma cell line SH-SY5H; experiment: MTT cell growth inhibition, SH-SY5H; assay type: cell-based; details: Homo sapiens, Neuroblastoma cell, MTT assay, 72 h, read-out: IC50, growth of tumor cell line
[14] = test system: HepG2 xenografts; experiment: HepG2 xenografts in nude mice; assay type: in vivo; details: HepG2 xenograft nude mice; for Anti-tumor rate (%) / Body weight (g) Post-dose / Tumor weight: 1 mg/kg; for Body weight (g) Pre-dose: before dosing
Method: as §1, §2

[15] = test system: LOVO xenografts; experiment: LOVO xenografts in nude mice; assay type: in vivo; details: LOVO xenograft nude mice; for Anti-tumor rate (%) / Body weight (g) Post-dose / Tumor weight: 1 mg/kg; for Body weight (g) Pre-dose: before dosing
Method: as §1, §2

[16] = test system: MDA-MB-231 xenografts; experiment: MDA-MB-231 xenografts in nude mice; assay type: in vivo, BALB/nu/nu mice; details: MDA-MB-231 xenograft nude mice; for Anti-tumor rate (%) / Body weight (g) Post-dose / Tumor weight: 1 mg/kg i.p. every two days, 8 administrations; for Body weight (g) Pre-dose: before dosing
Method: as §1

[17] = test system: doxorubicin-resistant human breast cancer cell lines MCF-7/ADR; experiment: MTT cell growth inhibition, MCF-7/ADR; assay type: cell-based; details: Homo sapiens, NCI/ADR-RES, MTT assay, 72 h, read-out: IC50, growth of tumor cell line
Description: as §3, §4

[18] = test system: 5-FU-resistant human hepatocellular carcinoma cell line BEL-7402/5-Fu; experiment: MTT cell growth inhibition, BEL-7402/5-Fu; assay type: cell-based; details: Homo sapiens, Bel7402/5-FU, MTT assay, 72 h, read-out: IC50, growth of tumor cell line
Description: as §3, §4

[19] = test system: human non-small-cell lung cancer cell line A549; experiment: MTT cell growth inhibition, A549; assay type: cell-based; details: Homo sapiens; A549, MTT assay, 72 h; read-out: IC50, growth of tumor cell line
Description: as §3, §4

[20] = test system: K562 xenografts; experiment: K562 xenografts in nude mice; assay type: in vivo; details: K562 xenograft nude mice; for Anti-tumor rate (%) / Body weight (g) Post-dose / Tumor weight: 1 mg/kg; for Body weight (g) Pre-dose: before dosing
Method: as §1, §2

[21] = test system: human colon cancer cell line LOVO; experiment: MTT cell growth inhibition, LOVO; assay type: cell-based; details: Homo sapiens; LOVO (FAPα positive), MTT assay, 72 h; read-out: IC50, growth of tumor cell line
Description: as §3, §4

[22] = test system: human melanoma cell line A375; experiment: MTT cell growth inhibition, A375; assay type: cell-based; details: Homo sapiens, A-375; A375, MTT assay, 72 h; read-out: IC50, growth of tumor cell line
[23] = MTT cytotoxicity on normal cells, HUVEC; details: human, HUVEC (human umbilical vein endothelial cells)
Method: (§5) Then, 100 μL of cells (cell concentration was 5×10^5/mL) were seeded into 96 wells plate. After 24 h incubation at 37° C. with 5% CO2, tested compounds were added (the control group without compound) for an additional 72 h incubation. After that, 30 μL of MTT [3-(4,5-Dimethylthiazol-2-yl)-2,5-diphenyltetrazolium bromide] solution (5 mg/mL) was added into each well and incubated for another 4 h at 37° C. and then the formazan crystals were solubilized with 100 μL DMSO. Finally, absorbance of each well was determined at 570 nm by a microplate reader (Thermo).
(§6) The standard curve was drew with compound concentrations as the abscissa and cell growth inhibition rates as the ordinate. The concentration required to inhibit cell growth by 50% (IC50) was calculated from survival curves.
(§7) Experimental method: In vitro cytotoxicities of vinca alkaloids, hydrazinolyzed vinca alkaloids and vinca alkaloid dipeptide derivatives on human normal liver cells LO2 and human umbilical vein endothelial cells HUVEC were detected according to the method of Example 2.

[24] = MTT cytotoxicity on normal cells, LO2; details: human, LO2 cells (human normal liver cells)
Method: as §5, §6, §7

SMILES | IC50 [1] [nM] | IC50 [2] [nM] | IC50 [3] [nM] | IC50 [4] [nM] | IC50 [5] [nM] | IC50 [6] [nM] | IC50 [7] [nM] | IC50 [8] [nM] | IC50 [9] [nM] | IC50 [10] [nM] | Anti-tumor rate (%) [11] | Body weight (g) Post-dose [11] [g] | IC50 [12] [nM] | IC50 [13] [nM] | IC50 [18] [nM] | IC50 [19] [nM] | IC50 [21] [nM] | IC50 [22] [nM] | IC50 at 72 h [23] [nM] | IC50 at 72 h [24] [nM] | further results
CC[C@]12C=CCN3CC[C@@]4(c5cc([C@@]6(C(=O)OC)C[C@@H]7C[C@@H](C(C)(F)F)CN(Cc8c6[nH]c6ccccc86)C7)c(OC)cc5N(C)[C@H]4[C@@](O)(C(=O)NN)[C@@H]1O)[C@@H]32 [JJ-CCFN, hydrazinolyzed vinflunine] | 55.9 ± 7.59 | 103 ± 6.37 | 198 ± 7.71 | 333 ± 12.5 | 132 ± 6.67 | 133 ± 6.7 | 304 ± 9.44 | 198 ± 19.5 | 98.3 ± 3.19 | 277 ± 9.67 | 60.10** % | 17.3 ± 0.1 | 90.8 ± 5.45 | 159 ± 20.4 | 166 ± 5.77 | 206 ± 6.79 | 313 ± 7.64 | 132 ± 9.51 |  |  | Tumor weight [11]: 0.83 ± 0.13 g; Body weight (g) Pre-dose [11]: 19.2 ± 1.9 g; Anti-tumor rate (%) [14]: 75.69** %; Body weight (g) Post-dose [14]: 16.5 ± 0.4 g; Tumor weight [14]: 0.62 ± 0.19 g; Body weight (g) Pre-dose [14]: 22.3 ± 1.7 g; Anti-tumor rate (%) [15]: 76.31** %; Body weight (g) Post-dose [15]: 18.9 ± 2.1 g; Tumor weight [15]: 0.68 ± 0.13 g; Body weight (g) Pre-dose [15]: 22.7 ± 1.5 g; Anti-tumor rate (%) [16]: 75.10** %; Body weight (g) Post-dose [16]: 16.3 ± 0.7 g; Tumor weight [16]: 0.65 ± 0.13 g; Body weight (g) Pre-dose [16]: 19.7 ± 2.1 g; IC50 [17]: 713 ± 25.6 nM; Anti-tumor rate (%) [20]: 57.74** %; Body weight (g) Post-dose [20]: 17.4 ± 0.9 g; Tumor weight [20]: 0.71 ± 0.21 g; Body weight (g) Pre-dose [20]: 21.5 ± 2.1 g
CCC1=C[C@@H]2CN(C1)Cc1c([nH]c3ccccc13)[C@@](C(=O)OC)(c1cc3c(cc1OC)N(C)[C@H]1[C@@](O)(C(=O)OC)[C@H](OC(C)=O)[C@]4(CC)C=CCN5CC[C@]31[C@@H]54)C2 [Vinorelbine, reference compound] | 12.2 ± 0.54 | 8.34 ± 0.53 | 9.03 ± 0.35 | 39.7 ± 5.79 | 11.4 ± 1.04 | 35.8 ± 6.57 | 49.5 ± 2.01 | 8.68 ± 1.35 | 23.7 ± 4.31 | 24.4 ± 3.82 |  |  | 19.9 ± 0.57 | 4.78 ± 0.84 | 36.1 ± 4.78 | 14.5 ± 1.07 | 7.86 ± 0.16 | 5.64 ± 0.95 | 1.13 ± 0.56 | 0.97 ± 0.08 | 
CC[C@]1(O)C[C@@H]2CN(CCc3c([nH]c4ccccc34)[C@@](C(=O)OC)(c3cc4c(cc3OC)N(C)[C@H]3[C@@](O)(C(=O)NN)[C@H](O)[C@]5(CC)C=CCN6CC[C@]43[C@@H]65)C2)C1 [JJ-CCJ, hydrazinolyzed vinblastine] | 3.67 ± 0.79 | 12.4 ± 0.72 | 7.14 ± 0.16 | 5.99 ± 3.29 | 14.5 ± 1.81 | 17.4 ± 2.2 | 23.9 ± 3.07 | 8.65 ± 1.28 | 6.27 ± 0.61 | 43.9 ± 3.77 | 69.23** % | 16.1 ± 0.4 | 5.33 ± 0.6 | 6.24 ± 1.31 | 80.3 ± 7.53 | 6.43 ± 2.42 | 32.9 ± 6.39 | 4.56 ± 0.57 | 36.1 ± 1 | 20.1 ± 0.97 | Tumor weight [11]: 0.64 ± 0.17 g; Body weight (g) Pre-dose [11]: 20.1 ± 1.7 g; Anti-tumor rate (%) [14]: 77.65** %; Body weight (g) Post-dose [14]: 16.1 ± 0.3 g; Tumor weight [14]: 0.57 ± 0.7 g; Body weight (g) Pre-dose [14]: 21.7 ± 1.2 g; Anti-tumor rate (%) [15]: 77.71** %; Body weight (g) Post-dose [15]: 17.3 ± 1.2 g; Tumor weight [15]: 0.64 ± 0.21 g; Body weight (g) Pre-dose [15]: 22.8 ± 1.7 g; Anti-tumor rate (%) [16]: 87.74** %; Body weight (g) Post-dose [16]: 16.4 ± 1.7 g; Tumor weight [16]: 0.32 ± 0.03 g; Body weight (g) Pre-dose [16]: 20.3 ± 0.7 g; Anti-tumor rate (%) [20]: 68.45** %; Body weight (g) Post-dose [20]: 16.5 ± 0.8 g; Tumor weight [20]: 0.53 ± 0.19 g; Body weight (g) Pre-dose [20]: 22.1 ± 1.9 g
CC[C@]1(O)C[C@H]2CN(CCc3c([nH]c4ccccc34)[C@@](C(=O)OC)(c3cc4c(cc3OC)N(C=O)[C@H]3[C@@](O)(C(=O)OC)[C@H](OC(C)=O)[C@]5(CC)C=CCN6CC[C@]43[C@@H]65)C2)C1 [Vincristine, reference compound] | 1.07 ± 0.33 | 0.97 ± 0.12 | 1.51 ± 0.76 | 1.03 ± 0.22 | 2.33 ± 0.77 | 0.87 ± 0.26 | 2.74 ± 0.36 | 1.81 ± 0.17 | 2.93 ± 0.37 | 7.78 ± 2.01 |  |  | 1.17 ± 0.31 | 1.34 ± 0.21 | 22.7 ± 3.37 | 1.32 ± 0.03 | 0.74 ± 0.09 | 0.95 ± 0.16 | 0.42 ± 0.09 | 0.21 ± 0.05 | IC50 [17]: 9.67 ± 2.2 nM
